# How the values were obtained:
# Assay type in all cases: in vivo
# Ctenocephalides felis = Ctenocephalides felis oral test (CTECFE); conditions: 48 h, 100 ppm in cattle blood, after 2 days
# Method: Ctenocephalides felis—Oral Test (CTECFE)
# (§1) Solvent: dimethyl sulfoxide
# To produce a suitable preparation of active compound, 10 mg of active compound are dissolved in 0.5 ml solvent, and the concentrate is diluted with cattle blood to the desired concentration.
# Approximately 20 adult unfed cat fleas (Ctenocephalides felis) are placed in flea chambers. The blood chamber, sealed with parafilm on the bottom, are filled with cattle blood supplied with compound solution and placed on the gauze covered top of the flea chamber, so that the fleas are able to suck the blood. The blood chamber is heated to 37° C. whereas the flea chamber is kept at room temperature.
# After 2 days mortality in % is determined. 100% means all the fleas have been killed; 0% means none of the fleas have been killed.
# Diabrotica balteata = Diabrotica balteata spray test; conditions: 168 h, wheat seeds, after 7 days, read-out: activity (efficacy, seedlings grown); for pest or weed control at 160 µg/disc, 500 g/ha: 500 g/ha (=160 μg/well)
# Method: Diabrotica balteata—Spray Test
# Solvent: 78.0 parts by weight of acetone • • 1.5 parts by weight of dimethylformamide
# (§2) Emulsifier: alkylarylpolyglycol ether
# (§3) To produce a suitable preparation of active compound, 1 part by weight of active compound is mixed with the stated amount of solvent, and the concentrate is diluted with water, containing an emulsifier concentration of 1000 ppm, to the desired concentration. Further test concentrations are prepared by dilution with emulsifier containing water.
# Soaked wheat seeds (Triticum aestivum) are placed in a multiple well plate filled with agar and some water and are incubated for 1 day to germinate (5 seeds per well). The germinated wheat seeds are sprayed with a test solution containing the desired concentration of the active ingredient. Afterwards each unit is infected with 10-20 larvae of the banded cucumber beetle (Diabrotica balteata).
# After 7 days efficacy in % is determined. 100% means all the seedlings have grown up like in the untreated, uninfected control; 0% means none of the seedlings have grown.
# Boophilus microplus = Boophilus microplus injection test (BOOPMI Injection); conditions: Rhipicephalus microplus, 168 h, injection into adult engorged female ticks, egg deposition after 7 days, read-out: activity (efficacy, infertile eggs); for pest or weed control at 0.004 mg: 4 μg/animal; for pest or weed control at 0.02 mg: 20 μg/animal
# Method: Boophilus microplus—Injection Test (BOOPMI Injection)
# as §1
# To produce a suitable preparation of active compound, 10 mg of active compound are dissolved in 0.5 mL solvent, and the concentrate is diluted with solvent to the desired concentration.
# Five adult engorged female ticks (Boophilus microplus) are injected with 1 μL compound solution into the abdomen. The ticks are transferred into replica plates and incubated in a climate chamber.
# After 7 days egg deposition of fertile eggs is monitored. Eggs where fertility is not visible are stored in a climate chamber till hatching after about 42 days. An efficacy of 100% means all eggs are infertile; 0% means all eggs are fertile.
# [1] = test system: Rhipicephalus microplus (strain Parkhurst, resistant against synthetic pyrethroids); assay: Rhipicephalus microplus in-vitro contact test, larval cattle tick (BOOPMI Contact); conditions: 5 μg/cm^2 (=500 g/ha), after 48 hours, read-out: activity (efficacy, larvae dead or moribund)
# Method: Rhipicephalus microplus—in-Vitro Contact Tests Larval Cattle Tick (Strain Parkhurst, Resistant Against Synthetic Pyrethroids) (BOOPMI Contact)
# 9 mg compound is solved in 1 ml acetone and diluted with acetone to the desired concentration. 250 μL of the test solution is filled in 25 ml glass test tubes and homogeneously distributed on the inner walls by rotation and tilting on a shaking device (2 h at 30 rpm). With a compound concentration of 900 ppm, an inner surface of 44.7 cm^2 and a homogeneous distribution, a dose of 5 μg/cm^2 is achieved.
# After the solvent has evaporated, each test tube is filled with 20-50 cattle tick larvae (Rhipicephalus microplus), closed with a perforated lid and incubated in a horizontal position at 85% relative humidity and 27° C. in an incubator. After 48 hours efficacy is determined. The larvae are patted on the ground of the tubes and negative geotactic behaviour is recorded.
# An efficacy of 100% means all larvae are dead or moribund; 0% means no larvae are dead or moribund.
# Spodoptera frugiperda = Spodoptera frugiperda spray test; conditions: in Zea mays, 168 h, read-out: activity (mortality)
# Method: Spodoptera frugiperda—Spray Test
# Solvent: 78.0 parts by weight acetone • 1.5 parts by weight dimethylformamide
# as §2
# as §3, with “solvents” for “solvent,”, “and” for “and the concentrate”
# Maize (Zea mays) leaf sections are sprayed with a preparation of the active ingredient of the desired concentration. Once dry, the leaf sections are infested with fall armyworm larvae (Spodoptera frugiperda).
# After 7 days mortality in % is determined. 100% means all caterpillars have been killed and 0% means none of the caterpillars have been killed.
Structure (SMILES),pest or weed control at 0.004 mg (Boophilus microplus),pest or weed control at 0.02 mg (Boophilus microplus),pest or weed control at 5 µg/cm2 [1],pest or weed control at 100 g/ha (Diabrotica balteata),further results
"CC(Nc1nc2cc(C(F)(F)F)cc(Cl)c2o1)c1nc(C(F)(F)F)nn1-c1ncccn1 (racemic) [Example I-048, 7-Chlor-N-{(rac)-1-[1-(pyrimidin-2-yl)-3-(trifluormethyl)-1H-1,2,4-triazol-5-yl]ethyl}-5-(trifluormethyl)-1,3-benzoxazol-2-amin]",–,–,–,–,mortality at 100 ppm (Ctenocephalides felis): 100%
C[C@H](Nc1nc2cc(C(F)(F)F)ccc2o1)c1ncnn1-c1ncccn1 [Example I-003],–,–,–,–,"pest or weed control at 160 µg/disc, 500 g/ha (Diabrotica balteata): 80%"
C[C@H](Nc1nc2cc(C(F)(F)F)cc(Cl)c2o1)c1ncnn1-c1ccc(Cl)cn1 [Example I-015],80%,100%,100%,–,"pest or weed control at 160 µg/disc, 500 g/ha (Diabrotica balteata): 100%; mortality at 500 g/ha (Spodoptera frugiperda): 100%"
C[C@H](Nc1nc2cc(C(F)(F)F)cc(Cl)c2o1)c1ncnn1-c1ccc(C#N)cn1 [Example I-018],100%,100%,80%,100%,"pest or weed control at 160 µg/disc, 500 g/ha (Diabrotica balteata): 100%; mortality at 100 g/ha (Spodoptera frugiperda): 100%; mortality at 500 g/ha (Spodoptera frugiperda): 100%"
Cc1nc([C@H](C)Nc2nc3cc(C(F)(F)F)cc(Cl)c3o2)n(-c2ccc(C#N)cn2)n1 [Example I-020],–,–,100%,–,–
Cc1nc([C@H](C)Nc2nc3cc(C(F)(F)F)cc(C(F)(F)F)c3o2)n(-c2ccc(C#N)cn2)n1 [Example I-021],100%,100%,80%,100%,"pest or weed control at 160 µg/disc, 500 g/ha (Diabrotica balteata): 100%"
C[C@H](Nc1nc2cc(C(F)(F)F)cc(Cl)c2o1)c1ncnn1-c1ccc(C(F)(F)F)cn1 [Example I-027],100%,100%,100%,–,mortality at 500 g/ha (Spodoptera frugiperda): 100%
Cc1nc([C@H](C)Nc2nc3cc(C(F)(F)F)cc(C(F)(F)F)c3o2)n(-c2ccc(C(F)(F)F)cn2)n1 [Example I-029],–,–,100%,–,–
C[C@H](Nc1nc2cc(C(F)(F)F)cc(C(F)(F)F)c2o1)c1ncnn1-c1ccc(C(F)(F)F)cn1 [Example I-030],80%,100%,–,–,–
C[C@H](Nc1nc2cc(C(F)(F)F)cc(C(F)(F)F)c2o1)c1ncnn1-c1ccc(Cl)cn1 [Example I-032],–,100%,–,–,mortality at 500 g/ha (Spodoptera frugiperda): 100%
"Cc1csc(-n2ncnc2[C@H](C)Nc2nc3cc(C(F)(F)F)cc(Cl)c3o2)n1 [Example I-038, 7-chloro-N-{(1S)-1-[1-(4-methyl-1,3-thiazol-2-yl)-1H-1,2,4-triazol-5-yl]ethyl}-5-(trifluoromethyl)-1,3-benzoxazol-2-amine]",80%,–,–,–,–
"COc1cnc(-n2ncnc2[C@H](C)Nc2nc3cc(C(F)(F)F)cc(Cl)c3o2)nc1 [Example I-043, 7-Chlor-N-{(1S)-1-[1-(5-methoxypyrimidin-2-yl)-1H-1,2,4-triazol-5-yl]ethyl}-5-(trifluormethyl)-1,3-benzoxazol-2-amin]",–,–,–,–,mortality at 100 g/ha (Spodoptera frugiperda): 100%
"COc1ccnc(-n2ncnc2[C@H](C)Nc2nc3cc(C(F)(F)F)cc(Cl)c3o2)n1 [Example I-051, 7-Chlor-N-{(1S)-1-[1-(4-methoxypyrimidin-2-yl)-1H-1,2,4-triazol-5-yl]ethyl}-5-(trifluormethyl)-1,3-benzoxaozl-2-amin]",–,100%,80%,–,–
"C[C@H](Nc1nc2cc(C(F)(F)F)cc(Br)c2o1)c1ncnn1-c1ccc(Cl)cn1 [Example I-054, 7-Brom-N-{(1S)-1-[1-(5-chlorpyridin-2-yl)-1H-1,2,4-triazol-5-yl]ethyl}-5-(trifluormethyl)-1,3-benzoxazol-2-amin]",–,100%,100%,–,mortality at 500 g/ha (Spodoptera frugiperda): 100%
"CC(C)c1cc(Cl)c2oc(N[C@@H](C)c3ncnn3-c3ncccn3)nc2c1 [Example I-063, 7-Chlor-5-isopropyl-N-{(1S)-1-[1-(pyrimidin-2-yl)-1H-1,2,4-triazol-5-yl]ethyl}-1,3-benzoxazol-2-amin]",80%,100%,–,100%,"pest or weed control at 160 µg/disc, 500 g/ha (Diabrotica balteata): 80%"
"CC(C)c1cc(Cl)c2oc(N[C@@H](C)c3ncnn3-c3cc(C#N)ccn3)nc2c1 [Example I-064, 2-(5-{(1S)-1-[(7-Chlor-5-isopropyl-1,3-benzoxazol-2-yl)amino]ethyl}-1H-1,2,4-triazol-1-yl)isonicotinonitril]",–,80%,–,100%,"pest or weed control at 160 µg/disc, 500 g/ha (Diabrotica balteata): 100%"
"CC(C)c1cc(Cl)c2oc(N[C@@H](C)c3ncnn3-c3ncc(Br)cn3)nc2c1 [Example I-068, N-{(1S)-1-[1-(5-Brompyrimidin-2-yl)-1H-1,2,4-triazol-5-yl]ethyl}-7-chlor-5-isopropyl-1,3-benzoxazol-2-amin]",100%,100%,80%,–,–
"C[C@H](Nc1nc2cc(C(C)(C)C)cc(Cl)c2o1)c1ncnn1-c1ccc(C#N)cn1 [Example I-077, 6-(5-[(1S)-1-[(5-tert-Butyl-7-chlor-1,3-benzoxazol-2-yl)amino]ethyl}-1H-1,2,4-triazol-1-yl)nicotinonitril]",100%,100%,–,–,–
"C[C@H](Nc1nc2cc(S(=O)(=O)c3ccccc3)cc(Cl)c2o1)c1ncnn1-c1ncccn1 [Example I-080, 7-Chlor-5-(phenylsulfonyl)-N-{(1S)-1-[1-(pyrimidin-2-yl)-1H-1,2,4-triazol-5-yl]ethyl}-1,3-benzoxazol-2-amin]",–,–,100%,–,–
"Cc1nc([C@H](C)Nc2nc3cc(Cl)cc(C(F)(F)F)c3o2)n(-c2ncccn2)n1 [Example I-089, 5-Chlor-N-{(1S)-1-[3-methyl-1-(pyrimidin-2-yl)-1H-1,2,4-triazol-5-yl]ethyl}-7-(trifluormethyl)-1,3-benzoxazol-2-amin]",100%,100%,–,–,–
"COc1nc([C@H](C)Nc2nc3cc(C(F)(F)F)c(Cl)cc3o2)n(-c2ccc(C#N)cn2)n1 [Example I-101, 6-{5-[(1S)-1-{[6-chloro-5-(trifluoromethyl)-1,3-benzoxazol-2-yl]amino}ethyl]-3-methoxy-1H-1,2,4-triazol-1-yl}pyridine-3-carbonitrile]",–,–,–,100%,–
"CCN(CC)C(=O)c1ccc(-n2ncnc2[C@H](C)Nc2nc3cc(C(F)(F)F)c(Cl)cc3o2)nc1 [Example I-102, 6-{5-[(1S)-1-{[6-chloro-5-(trifluoromethyl)-1,3-benzoxazol-2-yl]amino}ethyl]-1H-1,2,4-triazol-1-yl}-N,N-diethylpyridine-3-carboxamide]",–,–,–,100%,mortality at 100 g/ha (Spodoptera frugiperda): 100%
"C[C@H](Nc1nc2cc(C(F)(F)F)c(Cl)cc2o1)c1ncnn1-c1ccc(C(=O)N2CCCC2)cn1 [Example I-103, (6-{5-[(1S)-1-{[6-chloro-5-(trifluroomethyl)-1,3-benzoxazol-2-yl]amino}ethyl]-1H-1,2,4-triazol-1-yl}pyridin-3-yl)(pyrrolidin-1-yl)methanone]",–,–,–,100%,–

# Reference: patent publication US12384769B2, “Heteroaryl-substituted aminoalkyl azole compounds as pesticides” (Elanco Animal Health GmbH, priority 2019, dated 2025)
